Source: patent US20240148821A1, “PHARMACEUTICAL USE OF CYCLIC PEPTIDE COMPOUND” (CHUGAI SEIYAKU KABUSHIKI KAISHA, priority 2021, published 2024)
Numbered stars: 1 amine (or outer) side, 2 acyl side, 3 side chain; on linkers, the order of the positions; unused ones are H or OH. Bridge positions count the residues as written; N and C are the ends. Square brackets hold non-standard residues; d marks the D form. Peptide text beside a SMILES is read from it. * marks the point of attachment. hPhe(3-Cl-4-CF3) = N[C@@H](CCc1ccc(C(F)(F)F)c(Cl)c1)C(=O)O; hPhe(3-F,4-CF3) = N[C@@H](CCc1ccc(C(F)(F)F)c(F)c1)C(=O)O; NMeAla(4-thiazolyl) = CN[C@@H](Cc1cscn1)C(=O)O; NMePhe(4-Cl) = CN[C@@H](Cc1ccc(Cl)cc1)C(=O)O; NMePhe(4-Me) = CN[C@@H](Cc1ccc(C)cc1)C(=O)O; NMeNle(6-CHF2) = CN[C@@H](CCCCC(F)F)C(=O)O; NMePhe(3-F) = CN[C@@H](Cc1cccc(F)c1)C(=O)O; X40 = O=C([C@H](Cc1cc(I)ccc1F)N[*:1])[*:2]; NMeGly(cPent) = CN[C@H](C(=O)O)C1CCCC1; NMehPhe = CN[C@@H](CCc1ccccc1)C(=O)O; NMeCha = CN[C@@H](CC1CCCCC1)C(=O)O; Gly(N-(CH2)2OEt) = CCOCCNCC(=O)O; NMeI = CC[C@H](C)[C@H](NC)C(=O)O; NMeD = CN[C@@H](CC(=O)O)C(=O)O; NMeL = CN[C@@H](CC(C)C)C(=O)O; NMeV = CN[C@H](C(=O)O)C(C)C; d(β3hA) = C[C@@H](N)CC(=O)O; NMeA = CN[C@@H](C)C(=O)O; NMeAib = CNC(C)(C)C(=O)O; Nle = CCCC[C@H](N)C(=O)O; Piperidide = C1CCN(*)CC1; dNMeA = CN[C@H](C)C(=O)O; Ac5c = NC1(C(=O)O)CCCC1; Aze = O=C(O)[C@@H]1CCN1; NcPrGly = O=C(O)CNC1CC1; Aib = CC(C)(N)C(=O)O; Sar = CNCC(=O)O

system: Human pancreatic cancer cell line AsPC-1 (G12D mutation Kras); experiment: AsPC-1 cell growth inhibition (AsPC-1 CGI); type: cell-based; settings: read-out: AsPC-1 cell growth inhibition, 50% growth inhibitory concentration (IC50 value); 96 hours, CellTiter-Glo, values classified in ranges
Protocol: Test compounds were serially dilated with dimethyl sulfoxide, and 200 nL was then dispensed to a U-bottom 96-well plate using Labcyte Echo. […] The cell suspension was dispensed to a. plate containing a test compound at 100 μL per well and incubated at 37° C. in a 5% carbon dioxide gas incubator. 96 hours later, 80 μL of CellTiter-Glo (Promega) was added to each well and fluorescence was measured.

Compound	IC50
CC[C@H](C)[C@@H]1NC(=O)[C@H](CC(C)C)N(C)C(=O)C[C@@H](C(=O)N(C)C)N(C)C(=O)[C@H]([C@@H](C)CC)N(C)C(=O)[C@H](C(C)C)NC(=O)[C@H](Cc2cscn2)N(C)C(=O)[C@H](CCc2ccc(C(F)(F)F)c(Cl)c2)NC(=O)CN(C)C(=O)[C@H](Cc2ccc(C)cc2)N(C)C(=O)[C@@H]2CCN2C(=O)[C@H](C)N(C)C1=O [Compound 982] ([NMeL]I[NMeA][Aze][NMePhe(4-Me)][Sar][hPhe(3-Cl-4-CF3)][NMeAla(4-thiazolyl)]V[NMeI][NMeD]-NMe2; lactam N-11)	> 500 nM
CC[C@H](C)[C@@H]1NC(=O)[C@H](CC(C)C)N(C)C(=O)C[C@@H](C)NC(=O)[C@H](C(C)C)N(C)C(=O)C2(CCCC2)NC(=O)[C@@H]2CCCN2C(=O)[C@H](CCc2ccc(C(F)(F)F)c(Cl)c2)NC(=O)CN(C2CC2)C(=O)[C@H](CC2CCCCC2)N(C)C(=O)CN(C)C(=O)CN(C)C1=O [Compound 204] (cyclo([Ac5c][NMeV][d(β3hA)][NMeL]I[Sar][Sar][NMeCha][NcPrGly][hPhe(3-Cl-4-CF3)]P))	> 500 nM
CCOCCN1CC(=O)N(C)[C@@H](CC2CCCCC2)C(=O)N(C)CC(=O)N[C@@H](CCc2ccc(C(F)(F)F)c(Cl)c2)C(=O)N2CCC[C@H]2C(=O)NC2(CCCC2)C(=O)N(C)[C@@H](C(C)C)C(=O)N[C@H](C)CC(=O)N(C)[C@@H](CC(C)C)C(=O)N[C@@H]([C@@H](C)CC)C(=O)N(C)CC1=O [Compound 864] (cyclo([Ac5c][NMeV][d(β3hA)][NMeL]I[Sar][Gly(N-(CH2)2OEt)][NMeCha][Sar][hPhe(3-Cl-4-CF3)]P))	> 500 nM
CC[C@H](C)[C@@H]1NC(=O)[C@H](C)N(C)C(=O)C[C@@H](C)NC(=O)[C@H](C2CCCC2)N(C)C(=O)C2(CCCC2)NC(=O)[C@@H]2CCCN2C(=O)[C@H](CCc2ccc(C(F)(F)F)c(Cl)c2)NC(=O)[C@@H](C)N(C)C(=O)[C@H](C(C)C)N(C)C(=O)CN(C)C(=O)CN(C)C1=O [Compound 109] (cyclo([Ac5c][NMeGly(cPent)][d(β3hA)][NMeA]I[Sar][Sar][NMeV][dNMeA][hPhe(3-Cl-4-CF3)]P))	> 500 nM
CCCC[C@@H]1NC(=O)[C@H](Cc2cc(I)ccc2F)NC(=O)CN(C)C(=O)[C@H](Cc2ccc(Cl)cc2)N(C)C(=O)CN(C)C(=O)CN(C)C(=O)[C@H]([C@@H](C)CC)NC(=O)[C@H](CC(C)C)N(C)C(=O)C[C@@H](C(=O)N2CCCCC2)N(C)C(=O)[C@H](CC(C)C)NC(=O)C(C)(C)N(C)C1=O [Compound 1286] ([NMeL]I[Sar][Sar][NMePhe(4-Cl)][Sar][X40][Nle][NMeAib]L[NMeD]-Piperidide; lactam N-11)	> 500 nM
CC[C@H](C)[C@@H]1NC(=O)[C@H](CC(C)C)N(C)C(=O)C[C@@H](C(=O)N(C)C)N(C)C(=O)[C@H](C2CCCC2)N(C)C(=O)C2(CCCC2)NC(=O)[C@@H]2CCCN2C(=O)[C@H](CCc2ccc(C(F)(F)F)c(Cl)c2)NC(=O)CN(C)C(=O)[C@H](Cc2ccc(C)cc2)N(C)C(=O)[C@@H]2CCN2C(=O)[C@H](C)NC1=O [Compound 363] ([NMeL]IA[Aze][NMePhe(4-Me)][Sar][hPhe(3-Cl-4-CF3)]P[Ac5c][NMeGly(cPent)][NMeD]-NMe2; lactam N-11)	≤ 20 nM
CC[C@H](C)[C@@H]1NC(=O)[C@H](C)N(C)C(=O)C[C@@H](C)NC(=O)[C@H](C2CCCC2)N(C)C(=O)C2(CCCC2)NC(=O)[C@@H]2CCCN2C(=O)[C@H](CCc2ccc(C(F)(F)F)c(Cl)c2)NC(=O)CN(C)C(=O)[C@H](Cc2cccc(F)c2)N(C)C(=O)[C@@H]2CCCN2C(=O)CN(C)C1=O [Compound 194] (cyclo([Ac5c][NMeGly(cPent)][d(β3hA)][NMeA]I[Sar]P[NMePhe(3-F)][Sar][hPhe(3-Cl-4-CF3)]P))	> 500 nM
CC[C@H](C)[C@@H]1NC(=O)[C@H](CC(C)C)N(C)C(=O)C[C@@H](C(=O)N2CCCCC2)N(C)C(=O)[C@H](CC(C)C)N(C)C(=O)C(C)(C)NC(=O)[C@H](CC(C)C)N(C)C(=O)[C@H](CCc2ccc(C(F)(F)F)c(F)c2)NC(=O)CN(C)C(=O)[C@H](CCCCC(F)F)N(C)C(=O)CN(C)C(=O)CN(C)C1=O [Compound 1456] ([NMeL]I[Sar][Sar][NMeNle(6-CHF2)][Sar][hPhe(3-F,4-CF3)][NMeL][Aib][NMeL][NMeD]-Piperidide; lactam N-11)	> 500 nM
CC[C@H](C)[C@@H]1NC(=O)[C@H](C2CCCC2)N(C)C(=O)C[C@@H](C)NC(=O)[C@H](C(C)C)N(C)C(=O)C2(CCCC2)NC(=O)[C@@H]2CCCN2C(=O)[C@H](CCc2ccc(C(F)(F)F)c(Cl)c2)NC(=O)CN(C)C(=O)[C@H](CC2CCCCC2)N(C)C(=O)CN(C)C(=O)CN(C)C1=O [Compound 857] (cyclo([Ac5c][NMeV][d(β3hA)][NMeGly(cPent)]I[Sar][Sar][NMeCha][Sar][hPhe(3-Cl-4-CF3)]P))	> 500 nM
CC[C@H](C)[C@@H]1NC(=O)[C@H](CC(C)C)N(C)C(=O)C[C@@H](C)NC(=O)[C@H](C(C)C)N(C)C(=O)C2(CCCC2)NC(=O)[C@@H]2CCCN2C(=O)[C@H](CCc2ccc(C(F)(F)F)c(Cl)c2)NC(=O)CN(C)C(=O)[C@H](CCc2ccccc2)N(C)C(=O)CN(C)C(=O)CN(C)C1=O [Compound 1627] (cyclo([Ac5c][NMeV][d(β3hA)][NMeL]I[Sar][Sar][NMehPhe][Sar][hPhe(3-Cl-4-CF3)]P))	> 500 nM
